pEC50: −log10 of the molar value.
How the values were obtained:
[1] = Lipophilicity, logK of the compound by RP-HPLC analysis; format: physicochemical
[2] = test system: Mycobacterium tuberculosis; experiment: Antimycobacterial activity against Mycobacterium tuberculosis H37Rv CNCTC My 331/88 incubated for 10 to 14 days by microplate alamar blue assay; format: functional
[3] = test system: Mycobacterium kansasii; experiment: Antimycobacterial activity against Mycobacterium kansasii CNCTC My 235/80 incubated for 5 to 7 days by microplate alamar blue assay; format: functional
[4] = Cytotoxicity against CRFK cells assessed as cell viability after 4 to 6 days by formazan-based MTS assay; set-up: species or system Felis catus; conditions: cat
[5] = Cytotoxicity against HEL cells assessed as cell viability after 4 to 6 days by microscopic analysis; format: cell-based; conditions: human
[6] = Cytotoxicity against human HeLa cells assessed as cell viability after 4 to 6 days by microscopic analysis; format: cell-based
[7] = Cytotoxicity against African green monkey Vero cells assessed as cell viability after 4 to 6 days by microscopic analysis; format: cell-based; conditions: chlorocebus sabaeus
[8] = Cytotoxicity against MDCK cells assessed as cell viability after 4 to 6 days by formazan-based MTS assay; set-up: species or system Canis lupus familiaris; conditions: dog
[9] = Cytotoxicity against MDCK cells assessed as cell viability after 4 to 6 days by microscopic analysis; format: cell-based, Canis lupus familiaris; conditions: dog
[10] = test system: Influenza A virus; experiment: Antiviral activity against Influenza A virus (A/Puerto Rico/8/(H1N1)) assessed as inhibition of virus-induced cytopathic effect after 3 to 6 days by formazan-based MTS assay; format: functional, organism-based
[11] = test system: Mycobacterium avium; experiment: Antimycobacterial activity against Mycobacterium avium CNCTC My 80/72 after 5 days by microplate alamar blue assay; format: functional; conditions: CNCTC My 80/72, 120 h
[12] = test system: Mycobacterium avium; experiment: Antimycobacterial activity against Mycobacterium avium CNCTC My 152/73 after 5 days by microplate alamar blue assay; format: functional; conditions: CNCTC My 152/73, 120 h
[13] = test system: Escherichia coli; experiment: Antibacterial activity against Escherichia coli CCM 4517 after 24 to 48 hrs by broth microdilution method; format: functional
[14] = test system: Pseudomonas aeruginosa; experiment: Antibacterial activity against Pseudomonas aeruginosa CCM 1961 after 24 to 48 hrs by broth microdilution method; format: functional
[15] = test system: Klebsiella pneumoniae; experiment: Antibacterial activity against Klebsiella pneumoniae D 11750/08 after 24 to 48 hrs by broth microdilution method; format: functional
[16] = test system: Klebsiella pneumoniae; experiment: Antibacterial activity against ESBL positive Klebsiella pneumoniae J 14368/08 after 24 to 48 hrs by broth microdilution method; format: functional
[17] = test system: Candida albicans; experiment: Antifungal activity against Candida albicans ATCC 44859 after 24 to 48 hrs by broth microdilution method; format: functional
[18] = test system: Candida tropicalis; experiment: Antifungal activity against Candida tropicalis 156 after 24 to 48 hrs by broth microdilution method; format: functional
[19] = test system: Pichia kudriavzevii; experiment: Antifungal activity against Candida krusei E28 after 24 to 48 hrs by broth microdilution method; format: functional
[20] = test system: Nakaseomyces glabratus; experiment: Antifungal activity against Candida glabrata 20/I after 24 to 48 hrs by broth microdilution method; format: functional
[21] = test system: Trichosporon asahii; experiment: Antifungal activity against Trichosporon asahii 1188 after 24 to 48 hrs by broth microdilution method; format: functional
[22] = test system: Aspergillus fumigatus; experiment: Antifungal activity against Aspergillus fumigatus 231 after 24 to 48 hrs by broth microdilution method; format: functional
[23] = test system: Lichtheimia corymbifera; experiment: Antifungal activity against Lichtheimia corymbifera 272 after 24 to 48 hrs by broth microdilution method; format: functional
[24] = test system: Trichophyton mentagrophytes; experiment: Antifungal activity against Trichophyton mentagrophytes 445 after 72 to 120 hrs by broth microdilution method; format: functional
[25] = test system: Influenza A virus; experiment: Antiviral activity against Influenza A virus (A/Puerto Rico/8/(H1N1)) assessed as inhibition of virus-induced cytopathic effect after 3 to 6 days by microscopic analysis; format: functional, organism-based
[26] = test system: Mycobacterium tuberculosis; experiment: Potency index, ratio of pyrazinamide MIC to compound MIC for Mycobacterium tuberculosis H37Rv CNCTC My 331/88; format: functional

Row | Structure (SMILES) | log K [1] | MIC [2] | MIC [3] [µg/mL] | CC50 [4] [µM] | MCC [5] [µM] | MCC [6] [µM] | MCC [7] [µM] | CC50 [8] [µM] | MCC [9] [µM] | pEC50 [10] | MIC [11] [µg/mL] | MIC [12] [µg/mL] | MIC95 [13] [µM] | MIC95 [14] [µM] | MIC95 [15] [µM] | MIC95 [16] [µM] | MIC [17] [µM] | MIC [18] [µM] | MIC [19] [µM] | pEC50 [25] | further results
1 | CCCCCCCCNc1nccnc1C(=O)NCc1ccccc1 | 2.054 | > 100 µg/mL | > 100 | > 100 | > 100 | > 100 | > 100 | > 100 | 100 | < 4.00 | > 100 | > 100 | > 500 | > 500 | > 500 | > 500 | > 500 | > 500 | > 500 | < 4.00 | MIC [20]: > 500 µM; MIC [21]: > 500 µM; MIC [22]: > 500 µM; MIC [23]: > 500 µM; MIC [24]: > 500 µM
2 | CCCCNc1cnc(C(=O)NCc2ccccc2)cn1 | 0.424 | 88 µM | > 100 | > 100 | > 100 | > 100 | > 100 | 57 | 100 | < 4.00 | > 100 | > 100 | > 500 | > 500 | > 500 | > 500 | > 500 | > 500 | > 500 | < 4.00 | MIC [20]: > 500 µM; MIC [21]: > 500 µM; MIC [22]: > 500 µM; MIC [23]: > 500 µM; MIC [24]: > 500 µM
3 | CCCCCNc1cnc(C(=O)NCc2ccccc2)cn1 | 0.638 | 21 µM | > 100 | > 100 | > 100 | > 100 | > 100 | > 100 | > 100 | 5.48 | > 100 | > 100 | > 500 | > 500 | > 500 | > 500 | > 500 | > 500 | > 500 | 4.43 | MIC [20]: > 500 µM; MIC [21]: > 500 µM; MIC [22]: > 500 µM; MIC [23]: > 500 µM; MIC [24]: > 500 µM
4 | O=C(NCc1ccccc1)c1nccnc1NCc1ccccc1 | 1.04 | > 100 µg/mL | > 100 | > 100 | > 100 | > 100 | > 100 | > 100 | 20 | < 4.00 | > 100 | > 100 | – | – | – | – | – | – | – | < 4.00 | –
5 | O=C(NCc1ccccc1)c1cncc(NCc2ccccc2)n1 | 0.483 | 157 µM | > 100 | – | – | – | – | – | – | – | > 100 | > 100 | – | – | – | – | – | – | – | – | –
6 | CCCCCCNc1cnc(C(=O)NCc2ccccc2)cn1 | 0.859 | 10 µM | > 100 | > 100 | > 100 | > 100 | ≥ 100 | > 100 | > 100 | 4.21 | > 100 | > 100 | > 500 | > 500 | > 500 | > 500 | > 500 | > 500 | > 500 | 4.28 | MIC [20]: > 500 µM; MIC [21]: > 500 µM; MIC [22]: > 500 µM; MIC [23]: > 500 µM; MIC [24]: > 500 µM; Ratio [26]: <=20
7 | CCCCCCCNc1nccnc1C(=O)NCc1ccccc1 | 1.809 | > 100 µg/mL | > 100 | > 100 | 100 | > 100 | > 100 | > 100 | 100 | < 4.00 | > 100 | > 100 | > 500 | > 500 | > 500 | > 500 | > 500 | > 500 | > 500 | < 4.00 | MIC [20]: > 500 µM; MIC [21]: > 500 µM; MIC [22]: > 500 µM; MIC [23]: > 500 µM; MIC [24]: > 500 µM

Source: ChEMBL document CHEMBL3745676, “Alkylamino derivatives of N-benzylpyrazine-2-carboxamide: synthesis and antimycobacterial evaluation” (Medchemcomm, 2015)
